Values of other authors in patent publication EP2738198A1, “Enzymatic synthesis of polyamide in aqueous mini-emulsion” (Henkel AG & Co. KGaA, priority 2012, dated 2014).

Conditions: alcohol CnH2n+1OH corresponding to the alkyl group of the di(alkyl) sebacate, data from Handbook of Chemistry and Physics 86th Edition

| Partial Solubility of CnH2n+1OH in water | SMILES |
| --- | --- |
| ∞ | CCO [n 2] |
| 7900 µg/mL | CCCCCCO [n 6] |
| 300 µg/mL | CCCCCCCCO [n 8] |
